Results taken from patent US11352350B2, “IRAK degraders and uses thereof” (Kymera Therapeutics, Inc., priority 2018, dated 2022).
Read-outs that look alike come from different tables or passages of the source.

Experiments:
IRAK4 [1] = biological target: T1, IRAK4 (Homo sapiens (Human), UniProt Q9NWZ3); assay: IRAK4 MSD degradation in OCI-LY10; type: cell-based
How it was run: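 Remaining IRAK4 quantified by electrochemiluminescent MSD sandwich assay with two anti-IRAK4 antibodies. Compounds were dosed as 8 concentrations in 1:3 steps from a 1 to 10 μM final top on OCI-LY10 cells, incubated 4 to 24 h at 37° C. under 5% CO2. DC50 fitted with a three-parameter logistic curve.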

IRAK4 [2] = biological target: T1, IRAK4; assay: hPBMC IRAK4 degradation flow assay; type: cell-based; settings: hPBMC monocyte
Experimental: hPBMC IRAK4 degradation flow assay. Frozen PBMCs were thawed into RPMI with 10% FBS and allowed to recover. On the same day as thawed, PBMCs were plated in 96 well plate, 90 uL per well. Compound plates were prepared and a 10 point, 5-fold dilution was performed with a final DMSO concentration of 0.1%. Compound 10 μL per well was added, sealed and incubated at 37° C., 5% C02 for 20 hours (for 4 hour treatment, compounds were prepared and added the following day). […] Cells were spun down and washed two times with PBS/0.5% BSA, aspirated to pellet and placed into −80° C. freezer until further processing for flow. On the flow run day, PBMC plates were thawed and samples were transferred to PCR plates. The pre-perm staining cocktail (CD3 Ax488/CD8 BUV805/CD14 BUV395/CD16/56 BV711/CD19 BV785) was added to samples and incubated for 30 minutes at room temperature. Samples were washed two times and permeabilized with methanol for 10 minutes at 4° C. […] Samples were washed two times with PBS/BSA and run on a BD LSRFortessa. Mononuclear cells are gated by SSCH/FSCH and single cells. Monocytes are then gated through CD14 positive gate and lymphocytes are gated through CD14 negative gate. To determine absolute DC50s and max degradation values, MFI values were normalized to DMSO max and 20 hour 10 μM min control. Twenty hour dose curves were calculated using a 4 parameter logistic regression curve fit, no constraints (Top doses were removed if hook effects were observed and the bottom was constrained to 0).

OCI-LY10 = assay: CTG Cell Viability Assay - OCI-LY10; type: cell-based, human; settings: OCI-LY10, 4 days, read-out: CTG Cell Viability Assay - OCI-LY10: Average external-IC50
How it was run: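 Viability read by CellTiter-Glo luminescence after 4 days at 37° C under 5% CO2 with compound (top 10 μM final, 1:3 steps, 9 doses, DMSO 0.2%). Three-parameter logistic fit gave IC50.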

[3] = OCI-LY10, 4 hrs, read-out: IRAK4 MSD degradation in OCI-LY10 at 4 hrs: DC50
[4] = 20 hrs, read-out: IRAK4 degradation in hPBMC monocyte: DC50
[5] = OCI-LY10, 4 hrs, MSD, read-out: IRAK4 MSD degradation in OCI-LY10 at 4 hrs: Average external-Abs DC50
[6] = 20 hr, flow assay, read-out: IRAK4 degradation in hPBMC monocyte at 20 hr: Average external Abs DC50
[7] = OCI-LY10, 24 hrs, MSD, read-out: IRAK4 MSD degradation in OCI-LY10 at 24 hrs: Average external-Abs DC50

T1 sequence (Q9NWZ3 whole entry): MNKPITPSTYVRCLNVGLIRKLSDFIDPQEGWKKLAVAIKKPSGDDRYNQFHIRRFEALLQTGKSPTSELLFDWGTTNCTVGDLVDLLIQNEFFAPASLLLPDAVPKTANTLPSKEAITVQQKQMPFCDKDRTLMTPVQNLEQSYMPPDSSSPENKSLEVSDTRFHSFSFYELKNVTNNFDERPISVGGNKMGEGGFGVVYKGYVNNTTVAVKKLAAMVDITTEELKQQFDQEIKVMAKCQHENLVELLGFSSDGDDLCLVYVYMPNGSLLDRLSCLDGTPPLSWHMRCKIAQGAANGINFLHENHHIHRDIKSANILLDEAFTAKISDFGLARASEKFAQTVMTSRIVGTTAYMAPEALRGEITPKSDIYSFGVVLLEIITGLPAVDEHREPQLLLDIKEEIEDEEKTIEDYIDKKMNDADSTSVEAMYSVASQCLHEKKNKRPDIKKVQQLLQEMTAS

| SMILES | DC50 (IRAK4 [1]; [3]) [nM] | DC50 (IRAK4 [2]; [4]) [nM] | IC50 (OCI-LY10; Homo sapiens, OCI-Ly10, 96 h) [nM] | other results |
| --- | --- | --- | --- | --- |
| Cn1c(=O)n(C2CCC(=O)NC2=O)c2cccc(C#CCC3CCN(C[C@H]4CC[C@H](n5cc(NC(=O)c6cnn7ccc(N8CCCOCC8)nc67)c(C(F)F)n5)CC4)CC3)c21 (stereo partly drawn) [I-523] | < 10 | < 10 | > 1000 | – |
| CN(CCCO[C@H]1C[C@H](Nc2cccc3c2C(=O)N(C2CCC(=O)NC2=O)C3=O)C1)C[C@H]1CC[C@H](n2cc(NC(=O)c3cnn4ccc(N5C[C@H]6C[C@@H]5CO6)nc34)c(C(F)F)n2)CC1 (stereo partly drawn) [I-444] | 100 to 1000 | < 10 | < 50 | DC50 (IRAK4 [1]; OCI-LY10, 24 hrs, read-out: IRAK4 MSD degradation in OCI-LY10 at 24 hrs: DC50): < 10 nM |
| CN(CCCOCCCNc1cccc2c1C(=O)N(C1CCC(=O)NC1=O)C2=O)Cc1ccc(-n2cc(NC(=O)c3cnn4ccc(N5C[C@H]6C[C@@H]5CO6)nc34)c(C(F)F)n2)cc1 (stereo partly drawn) [I-320] | – | – | – | DC50 (IRAK4 [1]; [5]): > 1000 nM; DC50 (IRAK4 [2]; [6]): 10 to 100 nM; IC50 (OCI-LY10): > 1000 nM |
| Cn1c(=O)n(C2CCC(=O)NC2=O)c2cccc(C#CCOC3CCN(C[C@H]4CC[C@H](n5cc(NC(=O)c6cnn7ccc(N8CCCOCC8)nc67)c(C(F)F)n5)CC4)CC3)c21 (stereo partly drawn) [I-522] | < 10 | < 10 | 100 to 500 | – |
| Cn1c(=O)n(C2CCC(=O)NC2=O)c2cccc(CCCOC3CCN(CCCCn4ncc(NC(=O)c5cnn6ccc(N7CCOCC7)nc56)c4C(F)F)CC3)c21 (stereo not drawn) [I-488] | 100 to 1000 | 100 to 1000 | > 1000 | – |
| CN(C[C@H]1CC[C@H](n2cc3cc(NC(=O)c4cccc(C(F)(F)F)n4)c(C(C)(C)O)cc3n2)CC1)C1CCC2(CC1)CC(CNc1cccc3c1C(=O)N(C1CCC(=O)NC1=O)C3=O)C2 (stereo partly drawn) [I-331] | – | – | < 50 | DC50 (IRAK4 [1]; [5]): 10 to 100 nM; DC50 (IRAK4 [1]; [7]): < 10 nM; DC50 (IRAK4 [2]; [6]): 10 to 100 nM |
| C[C@H](/C=C/c1cccc2c1n(C)c(=O)n2C1CCC(=O)NC1=O)OC1CCN(C[C@H]2CC[C@H](n3cc(NC(=O)c4cnn5ccc(N6C[C@H]7C[C@@H]6CO7)nc45)c(C(F)F)n3)CC2)CC1 (stereo partly drawn) [I-559] | – | < 10 | > 1000 | – |
| CN(CCCC#Cc1ccc2c(c1)n(C)c(=O)n2C1CCC(=O)NC1=O)C[C@H]1CC[C@H](n2cc(NC(=O)c3cnn4ccc(N5C[C@H]6C[C@@H]5CO6)nc34)c(C(F)F)n2)CC1 (stereo partly drawn) [I-546, 5-((1R,4R)-2-oxa-5-azabicyclo[2.2.1]heptan-5-yl)-N-(3-(difluoromethyl)-1-((1r,4R)-4-(((5-(1-(2,6-dioxopiperidin-3-yl)-3-methyl-2-oxo-2,3-dihydro-1H-benzo [d]imidazol-5-yl)pent-4-yn-1-yl)(methyl)amino)methyl)cyclohexyl)-1H-pyrazol-4-yl)pyrazolo[1,5-a] pyrimidine-3-carboxamide] | 100 to 1000 | 10 to 100 | – | – |
| CC(C)(O)c1cc2nn([C@H]3CC[C@H](CN4CCC(COCCCNc5cccc6c5C(=O)N(C5CCC(=O)NC5=O)C6=O)CC4)CC3)cc2cc1NC(=O)c1cccc(C(F)(F)F)n1 (stereo partly drawn) [I-376] | – | – | 100 to 500 | DC50 (IRAK4 [1]; [5]): 10 to 100 nM; DC50 (IRAK4 [1]; [7]): 10 to 100 nM; DC50 (IRAK4 [2]; [6]): < 10 nM |
| Cn1c(=O)n(C2CCC(=O)NC2=O)c2cccc(CCCOC3CCN(C[C@H]4CC[C@H](n5cc(NC(=O)c6cnn7ccc(N8CCOC(C)(C)C8)nc67)c(C(F)F)n5)CC4)CC3)c21 (stereo partly drawn) [I-539] | 10 to 100 | < 10 | – | – |
| Cc1ccc(-c2nn([C@H]3CC[C@H](CN4CCC(OCCCc5cccc6c5n(C)c(=O)n6C5CCC(=O)NC5=O)CC4)CC3)cc2NC(=O)c2cnn3ccc(N4C[C@H]5C[C@@H]4CO5)nc23)nc1 (stereo partly drawn) [I-484] | 100 to 1000 | 100 to 1000 | > 1000 | – |
| Cn1c(=O)n(C2CCC(=O)NC2=O)c2cccc(CCCN3CC4CN(C(=O)[C@H]5CC[C@H](n6cc(NC(=O)c7cnn8ccc(N9C[C@H]%10C[C@@H]9CO%10)nc78)c(C(F)F)n6)CC5)CC4C3)c21 (stereo partly drawn) [I-449] | < 10 | < 10 | > 1000 | – |
| C[C@@H](C#Cc1cccc2c1n(C)c(=O)n2C1CCC(=O)NC1=O)OC1CCN(C[C@H]2CC[C@H](n3cc(NC(=O)c4cnn5ccc(N6C[C@H]7C[C@@H]6CO7)nc45)c(C(F)F)n3)CC2)CC1 (stereo partly drawn) [I-544] | 10 to 100 | 100 to 1000 | > 1000 | – |
| C[C@@H]1CN(c2ccn3ncc(C(=O)Nc4cn([C@H]5CC[C@H](CN6CCC(OCC#Cc7cccc8c7n(C)c(=O)n8C7CCC(=O)NC7=O)CC6)CC5)nc4C(F)F)c3n2)C[C@H](C)O1 (stereo partly drawn) [I-531] | 10 to 100 | < 10 | – | – |
| C[C@H]1CN(c2ccn3ncc(C(=O)Nc4cn([C@H]5CC[C@H](CN6CCC(OCC#Cc7cccc8c7n(C)c(=O)n8C7CCC(=O)NC7=O)CC6)CC5)nc4C(F)F)c3n2)C[C@H](C)O1 (stereo partly drawn) [I-536] | 10 to 100 | < 10 | – | – |
| C[C@@H]1CN(c2ccn3ncc(C(=O)Nc4cn([C@H]5CC[C@H](CN6CCC(OCC#Cc7cccc8c7n(C)c(=O)n8C7CCC(=O)NC7=O)CC6)CC5)nc4C(F)F)c3n2)C[C@@H](C)O1 (stereo partly drawn) [I-527] | 10 to 100 | < 10 | – | – |
| Cn1c(=O)n(C2CCC(=O)NC2=O)c2cccc(CCCOC3CCN(C[C@H]4CC[C@H](n5cc(NC(=O)c6cnn7ccc(N8CCOC9(CCC9)C8)nc67)c(C(F)F)n5)CC4)CC3)c21 (stereo partly drawn) [I-542] | 10 to 100 | < 10 | – | – |
| C[C@@H](CCc1cccc2c1n(C)c(=O)n2C1CCC(=O)NC1=O)OC1CCN(C[C@H]2CC[C@H](n3cc(NC(=O)c4cnn5ccc(N6C[C@H]7C[C@@H]6CO7)cc45)c(C(F)F)n3)CC2)CC1 (stereo partly drawn) [I-545] | < 10 | < 10 | – | – |
| CN(CCCC#Cc1cccc2c1n(C)c(=O)n2C1CCC(=O)NC1=O)C[C@H]1CC[C@H](n2cc(NC(=O)c3cnn4ccc(N5C[C@H]6C[C@@H]5CO6)nc34)c(C(F)F)n2)CC1 (stereo partly drawn) [I-550, 5-((1R,4R)-2-oxa-5-azabicyclo[2.2.1]heptan-5-yl)-N-(3-(difluoromethyl)-1-((1r,4R)-4-(((5-(1-(2,6-dioxopiperidin-3-yl)-3-methyl-2-oxo-2,3-dihydro-1H-benzo [d]imidazol-4-yl)pent-4-yn-1-yl)(methyl)amino)methyl)cyclohexyl)-1H-pyrazol-4-yl)pyrazolo[1,5-a] pyrimidine-3-carboxamide] | 10 to 100 | < 10 | – | – |
| Cn1c(=O)n(C2CCC(=O)NC2=O)c2cccc(CCCC3CCN(C[C@H]4CC[C@H](C5N=C(NC(=O)c6cnn7ccc(N8CCOC9(CCC9)C8)nc67)C(C(F)F)=N5)CC4)CC3)c21 (stereo partly drawn) [I-538] | 10 to 100 | < 10 | – | – |
| C[C@@H]1CC(OCCc2cccc3c2n(C)c(=O)n3C2CCC(=O)NC2=O)C[C@H](C)N1C[C@H]1CC[C@H](n2cc(NC(=O)c3cnn4ccc(N5C[C@H]6C[C@@H]5CO6)nc34)c(C(F)F)n2)CC1 (stereo partly drawn) [I-558] | – | < 10 | > 1000 | – |
| Cn1c(=O)n(C2CCC(=O)NC2=O)c2cccc(CCCC3CCN(C[C@H]4CC[C@H](C5N=C(NC(=O)c6cnn7ccc(N8C[C@H]9CC[C@@H](C8)O9)nc67)C(C(F)F)=N5)CC4)CC3)c21 (stereo partly drawn) [I-535] | < 10 | < 10 | – | – |
| CN1C(=O)C(C2CCC(=O)NC2=O)c2cc(C#CCOC3CCN(C[C@H]4CC[C@H](C5N=C(NC(=O)c6cnn7ccc(N8C[C@H]9C[C@@H]8CO9)nc67)C(C(F)F)=N5)CC4)CC3)ccc21 (stereo partly drawn) [I-548] | 100 to 1000 | 100 to 1000 | – | – |
| Cn1c(=O)n(C2CCC(=O)NC2=O)c2cccc(C#CCOC3CCN(C[C@H]4CC[C@H](n5cc(NC(=O)c6cnn7ccc(N8CCOC(C)(C)C8)nc67)c(C(F)F)n5)CC4)CC3)c21 (stereo partly drawn) [I-533] | 10 to 100 | < 10 | – | – |
| Cn1c(=O)n(C2CCC(=O)NC2=O)c2cccc(CCCOCCCC(CNC[C@H]3CC[C@H](n4cc(NC(=O)c5cnn6ccc(N7C[C@H]8C[C@@H]7CO8)nc56)c(C(F)F)n4)CC3)C(=O)O)c21 (stereo partly drawn) [I-470] | 100 to 1000 | 100 to 1000 | – | – |
